Test system: leaf rust of wheat "Puccinia recondita"
Assay: Biotest: curative control of leaf rust of wheat
Format: in vivo
Details: wheat seedlings "Kanzler", curative spray 2 days after inoculation; 50 ppm epoxiconazole without adjuvant; disease percent of total leaf area after 10 days
Protocol: 125 g/l epoxiconazole were ground together with in each case 20 g/l dispersant (Atlas G 5000^1, Synperonic A^1) and 50 g/l propylene glycol in aqueous medium in a stirred-ball mill (dyno-mill) until a particle size of 80%<2 μm was reached. To the mixture were added 3 g/l per liter antifoam, for example Rhodorsil 426^2, 3 g/l thickener, for example Rhodopol 23^2, and a biocide, for example Acticide MBS^3. The respective adjuvant, in aqueous solution or in a solvent, for example Solvesso, was stirred into this mixture, so that the final concentration of the formulation is composed of 62.5 g/l epoxiconazole and 125 g/l adjuvant. ^1Uniquema/Croda^2Rhodia^3Thor Chemie
Biotest (Curative Control of Leaf Rust of Wheat):
Leaves of wheat seedlings of the species “Kanzler” which had been grown in pots were dusted, in the two-leaf stage, with spores of leaf rust of wheat “Puccinia recondita” and incubated for 2 days in the greenhouse at high atmospheric humidity. In fully automated spray cabins, the plants were then sprayed with the formulations which comprised the active ingredients and adjuvants specified hereinbelow. The spray mixtures comprised 50 ppm epoxiconazole and 100 ppm adjuvant. […] After 10 days, the extent of the leaf rust disease was determined visually as disease percent of the total leaf area. 3 pots were evaluated for each combination.

SMILES: Fc1ccc([C@]2(Cn3cncn3)O[C@H]2c2ccccc2Cl)cc1 (racemic) [Epoxiconazole]
- % infection: 40%
